Several values for one entry are separate records, joined by “and”; a condition that tells them apart may be missing. Identical values can stand only once. Marks after values point to notes of the source that are not given here. Strand notation (5' to 3'): a small letter for the sugar, then the base; units joined by * are phosphorothioate-linked, units joined directly phosphodiester-linked; [ ] holds rarer units or linkages, { } end groups; capitals alone tell only the bases. [ms] = mesyl phosphoramidate linkage; e = 2'-O-(2-methoxyethyl) (MOE); k = constrained ethyl (cEt); [5mC] = 5-methylcytosine; d = 2'-deoxy (DNA)
Assays:
human APOE RNA [1] = assay: Duration of action study in APOE C57BL/6NTac-Apoeem7250 knock-in mice (Example 18); assay type: in vivo
Description: Modified oligonucleotides described above were tested in the APOE C57BL/6NTac-Apoeem7250 knock-in model (described above).
Each mouse received a single intracerebroventricular (ICV) bolus of 300 μg of modified oligonucleotide. A group of 4-6 mice received a single ICV bolus with PBS as a negative control.
Mice were sacrificed at various timepoints as indicated in the table below and RNA was extracted from cortical brain tissue and spinal cord for quantitative real-time RT-PCR analysis of RNA expression of APOE using primer probe set RTS3073 (described herein above). APOE RNA levels were normalized to mouse Ppia. Mouse Ppia was amplified using primer probe set m_cyclo24 (described herein above). Results are presented as percent human APOE RNA relative to the amount of human APOE RNA in PBS treated animals, (% control). Each experiment is identified in separate tables below.

human APOE RNA [2] = assay: Potency (dose response, ED50) in APOE C57BL/6NTac-Apoeem7250 knock-in mice, 8 weeks (Example 15); assay type: in vivo; conditions: for ED 50 (μg) Cortex: single ICV bolus, GraphPad Prism 10
Description: Modified oligonucleotides described above were tested in the APOE C57BL/6NTac-Apoeem7250 knock-in mouse model described above.
APOE C57BL/6NTac-Apoeem7250 knock-in mice were divided into groups of 3-4 mice each. A group of 4 mice received a single ICV bolus with PBS as a negative control.
Eight weeks post treatment, mice were sacrificed, and RNA was extracted from cortical brain tissue and spinal cord for quantitative real-time RT-PCR analysis of RNA expression of […] using human primer probe set RTS3073 (described herein above). APOE RNA levels were normalized to mouse Ppia. Mouse Ppia was amplified using primer probe set m_cyclo24 (described herein above). Results are presented as percent human APOE RNA relative to the amount of APOE RNA in PBS treated animals, (% control). N.C. indicates values that were not calculated.
The half maximal effective dose (ED50) of each modified oligonucleotide was calculated using GraphPad Prism 10 software (GraphPad Software, San Diego, CA).

human APOE RNA [3] = assay: Activity in APOE 1549 knock-in mice, single ICV bolus, 4 weeks (Example 8); assay type: in vivo; conditions: n = 6, single ICV bolus 300 μg, 4 weeks
Description: Modified oligonucleotides described above were tested in the 1549 APOE knock-in mouse model described above.
APOE knock-in mice were divided into groups of either 2 or 6 mice each as described in the tables below. Each mouse received a single intracerebroventricular (ICV) bolus of 300 μg of modified oligonucleotide. A group of either 3 or 6 mice received a single ICV bolus with PBS as a negative control.
Four weeks post treatment, mice were sacrificed and RNA was extracted from cortical brain tissue and spinal cord for quantitative real-time RT-PCR analysis of RNA expression of APOE using primer probe set RTS3073 (described herein above). APOE RNA levels were normalized to mouse Ppia. Mouse Ppia was amplified using primer probe set m_cyclo24 (described herein above). Results are presented as percent human APOE RNA relative to the amount of human APOE RNA in PBS treated animals, (% control). Each experiment is identified in separate tables below.

[4] = 196 days post-dose, single ICV bolus 300 μg, APOE knock-in mice, normalized to mouse Ppia, relative to PBS
[5] = 224 days post-dose, single ICV bolus 300 μg, APOE knock-in mice, normalized to mouse Ppia, relative to PBS
[6] = 285 days post-dose, single ICV bolus 300 μg, APOE knock-in mice, normalized to mouse Ppia, relative to PBS

Description for BJAB cells: Human APOE modified oligonucleotides were tested for potential immunostimulatory properties in an in vitro human BJAB activation assay.
Human Burkitt lymphoma B cells, BJAB cells (DSMZ, Cat #ACC 757) were cultured in RPMI1640 medium containing 20% fetal bovine serum at 37° C. and 5% CO2. Cells were maintained at a density of 0.5-0.7×10^6 cells per milliliter. Cells were transferred to 50 mL conical Falcon tubes and centrifuged at 330 RCF for 5 minutes before being resuspended at a concentration of 7.5×10^4 cells per milliliter in RPMI culture medium containing penicillin and streptomycin. 50 μL of the cell suspension was added to a v-bottom tissue culture treated 96-well microplate. 11 μl of 10× concentrated modified oligonucleotides was then added to the plate for a final concentration of 1.6 μM and incubated for 24 hours at 37° C. and 5% CO2.
After a treatment period of 24 hours, total RNA was isolated from the cells and CCL22 RNA levels were measured by quantitative real-time RT-PCR. CCL22 RNA levels were measured by human primer-probe set RTS49260 (forward sequence [sequence], designated herein as SEQ ID NO: 19; reverse sequence [sequence], designated herein as SEQ ID NO: 20; probe sequence [sequence], designated herein as SEQ ID NO: 21). CCL22 RNA levels were normalized to total RNA content, as measured by GAPDH. Human GAPDH was measured using the human primer-probe set RTS104 (forward sequence [sequence], designated herein as SEQ ID NO: 10; reverse sequence [sequence], designated herein as SEQ ID NO: 11; probe sequence [sequence], designated herein as SEQ ID NO: 12). Levels of CCL22 RNA is presented log fold increase of CCL22, relative to untreated control cells (UTC). The assignment of the immunostimulatory properties of the test compounds is based on the immunostimulatory properties of the internal control compounds in each assay.

Substance | APOE RNA (% control) Cortex (human APOE RNA [1]; [4]) [% control] | APOE RNA (% control) Cortex (human APOE RNA [1]; [5]) | APOE RNA (% control) Cortex (human APOE RNA [1]; [6]) [% control] | APOE RNA (% control) Spinal Cord (human APOE RNA [1]; [4]) [% control] | APOE RNA (% control) Spinal Cord (human APOE RNA [1]; [5]) | APOE RNA (% control) Spinal Cord (human APOE RNA [1]; [6]) [% control] | APOE RNA (% control) Cortex (human APOE RNA [2]; ICV dose 10 μg) [% control] | APOE RNA (% control) Cortex (human APOE RNA [2]; ICV dose 30 μg) [% control] | APOE RNA (% control) Cortex (human APOE RNA [2]; ICV dose 100 μg) [% control] | APOE RNA (% control) Cortex (human APOE RNA [2]; ICV dose 300 μg) [% control] | APOE RNA (% control) Cortex (human APOE RNA [2]; ICV dose 700 μg) [% control] | ED 50 (μg) Cortex (human APOE RNA [2]) [µg] | APOE RNA (% control) Spinal Cord (human APOE RNA [2]; ICV dose 10 μg) [% control] | APOE RNA (% control) Spinal Cord (human APOE RNA [2]; ICV dose 30 μg) [% control] | APOE RNA (% control) Spinal Cord (human APOE RNA [2]; ICV dose 100 μg) [% control] | APOE RNA (% control) Spinal Cord (human APOE RNA [2]; ICV dose 300 μg) [% control] | APOE RNA (% control) Spinal Cord (human APOE RNA [2]; ICV dose 700 μg) [% control] | inflammatory response in human BJAB cells (BJAB cells) | other results
Aks^mCeoTeoTesGesGksTdsGdzAdzAdzTds^mCdsTdsTdsTdsAdzTksTksAesAe (kA*e[5mC]eTeT*eG*kG*dT*dG[ms]dA[ms]dA[ms]dT*d[5mC]*dT*dT*dT*dA[ms]kT*kT*eA*eA) [Compound No. 1809635] | 50 | 55 % control | 67 | 33 | 26 % control | 41 | 95 | 84 | 62 | 30 | 16 | 146.7 | 51 | 27 | 13 | 13 | 18 | did not induce any inflammatory response | APOE RNA (% control) Cortex (human APOE RNA [1]; 300 μg ICV, 28 days post-dose): 29 % control and 25 % control; APOE RNA (% control) Cortex (human APOE RNA [1]; 300 μg ICV, 56 days post-dose): 19 % control; APOE RNA (% control) Cortex (human APOE RNA [1]; 300 μg ICV, 112 days post-dose): 24 % control and 35 % control; APOE RNA (% control) Cortex (human APOE RNA [1]; 300 μg ICV, 140 days post-dose): 52‡ % control; APOE RNA (% control) Cortex (human APOE RNA [1]; 300 μg ICV, 168 days post-dose): 35 % control; APOE RNA (% control) Cortex (human APOE RNA [1]; 300 μg ICV, 342 days post-dose): 68 % control; APOE RNA (% control) Spinal Cord (human APOE RNA [1]; 300 μg ICV, 28 days post-dose): 11 % control and 18 % control; APOE RNA (% control) Spinal Cord (human APOE RNA [1]; 300 μg ICV, 56 days post-dose): 11 % control; APOE RNA (% control) Spinal Cord (human APOE RNA [1]; 300 μg ICV, 112 days post-dose): 13 % control and 14 % control; APOE RNA (% control) Spinal Cord (human APOE RNA [1]; 300 μg ICV, 140 days post-dose): 27‡ % control; APOE RNA (% control) Spinal Cord (human APOE RNA [1]; 300 μg ICV, 168 days post-dose): 26 % control; APOE RNA (% control) Spinal Cord (human APOE RNA [1]; 300 μg ICV, 342 days post-dose): 36 % control
Aes^mCeoTeoTesGesGksTdsGdzAdzAdzTds^mCdsTdsTdsTdsAdzTksTksAesAe (eA*e[5mC]eTeT*eG*kG*dT*dG[ms]dA[ms]dA[ms]dT*d[5mC]*dT*dT*dT*dA[ms]kT*kT*eA*eA) [Compound No. 1757576] | 71 | 92‡ % control | 87 | 28 | 33‡ % control | 86 | 93 | 92 | 52 | 30 | 18 | 135.7 | 33 | 15 | 13 | 9 | 9 | did not induce any inflammatory response | APOE RNA (% control) Cortex (human APOE RNA [3]; Cortex): 26 % control; APOE RNA (% control) Spinal Cord (human APOE RNA [3]; Spinal Cord): 17 % control
